Laboratory results: patent US20140161767A1, “FOLLICLE-STIMULATING HORMONE (FSH)/LYTIC DOMAIN FUSION CONSTRUCTS AND METHODS OF MAKING AND USING SAME” (BOARD OF SUPERVISORS OF LOUISIANA STATE UNIVERSITY AND …, priority 2012, published 2014)

How the values were obtained:
[1] = tested on: MDA-MB-435S.luc xenograft; experiment: Mouse xenograft model of breast cancer, βCG fusion constructs; assay type: in vivo, mice; conditions: weekly bolus injections, days 13, 19, 25
Experimental: This example describes in vivo studies in a mouse xenograft model of breast cancer with various types and doses of βCG- and LHRH-fusion constructs.
Female Nu/Nu mice were injected subcutaneously with a MDA-MB-435S.luc/Matrigel HC suspension (1×10^6 cells). In brief, treatment started on day 13 after tumor cell injection and continued on day 19 and 25. […] The doses for weekly injections were 5, 1 and 0.01 mg/kg body weight, given as a bolus single injection.
The effect of cytolytic peptide injections on the primary tumors is illustrated in FIG. 8. In brief, the FIGS. 8A-8C show tumor volume during the course of the study for each individual peptide. FIGS. 8D-8G show tumor characteristics at necropsy: tumor volume (D), tumor weight (E), live tumor cells (F), tumor conditions (G).
Treatment efficacy was calculated as difference between measurements at the beginning of treatment compared to the measurement at the end of study (FIG. 8H-8I). […] Viability of cells in the tumors was determined at the end of the study when tumors were measured for luciferase activity.

MES-SA-Dx5 = experiment: Cell viability after 4 hours (Cell Titer Glo), MES-SA-Dx5; assay type: cell-based, human; conditions: 4 h incubation; read-out: Activities [μM] MES-SA-Dx5 (p61)
Experimental: (§1) Human ovarian cancer cell lines OVCAR-3 (p 41), SKOV-3 (p 35) and the human uterine sarcoma cell line MES-SA-Dx5 (p 61) (multi-drug resistant clone), the human pancreatic cancer cell line Panc-1 (passage number 18), and human triple negative breast cancer cell line MDA-MB-231 (passage number 47) were grown in ATCC recommended medium, 10% fetal bovine serum, 100 IU/ml penicillin, 100 microg/ml streptomycin. Cells were typically seeded (2,000 cells per well) into 96 well plates and media was replaced after 48 hours of incubation. […] Each Phor-18-hFSH-β81-89 conjugate provided in lyophilized form was dissolved in saline and added to cells. The duration of incubation was 4 hours at 37° C. Cell viability was assessed after 4 hours using a luminometric assays (Promega, Cell Titer Glo, G755B, lot #00000031421). Controls contained saline or 0.1% triton as reference for 0 and 100% cell death, respectively.
(§2) Data were processed and analyzed using GraphPad Prism version 5.00 for Windows, GraphPad Software, San Diego Calif. USA, www.graphpad.com”. Statistical analysis for significance was determined by a two-tailed Student's T-test. Each study was conducted to achieve an N of at least 6.
(§3) In vitro activities were expressed as IC50 values for each cell line, time point and compound tested that were calculated using the Hill equation (Graph Pad Prizm software).

OVCAR-3 = experiment: Cell viability after 4 hours (Cell Titer Glo), OVCAR-3; assay type: cell-based, human; conditions: 4 h incubation; read-out: Activities [μM] OVCAR-3 (p41)
Experimental: as §1, §2, §3

SKOV-3 = experiment: Cell viability after 4 hours (Cell Titer Glo), SKOV-3; assay type: cell-based, human; conditions: 4 h incubation; read-out: Activities [μM] SKOV-3 (p35)
Experimental: as §1, §2, §3

MDA-MB-231 = experiment: Cell viability after 4 hours (Cell Titer Glo), MDA-MB-231; assay type: cell-based, human; conditions: 4 h incubation; read-out: Activities [μM] MDA-MB-231 (p47)
Experimental: as §1, §2, §3

OVCAR-3 cells = assay type: cell-based, human; conditions: OVCAR-3 (p47), values listed with increasing incubation time, times not stated
Excerpt: (§4) Membranes of non-cancerous cell lines are neutral and are resistant to cytolytic peptides, in contrast to cancer cell lines, which have a high phosphatidic acid content in their outer membrane.
(§5) The breast cancer cell lines studied were MDA-MB-4355 (estrogen receptor alpha negative), MCF-7 and T47D (estrogen receptor alpha positive), ovarian cancer cell lines (OVCAR-3 and SKOV-3), prostate cancer (LNCaP), the non-malignant breast epithelial cell line MCF-10A and the mouse fibroblast cell line NIH:3T3.
(§6) Cells were seeded into 96 well plates at a densitiy of 10,000 cells/well. […] Controls contained USP saline or 0.1% TritonX-100™ as reference for 0 and 100% cell death, respectively. […] Cell viability was assessed through formazan conversion assay (MTT assay, (CellTiter 96 Aqueous One, Promega # G3582). Formazan conversion was determined using a BioRad Benchmark Plus microplate spectrophotometer dual wavelengths at 490/630 nm at room temperature).
(§7) Data were calculated as fraction of absorption in TritonX-100™ containing wells representing 100% cell death versus 0% cell death in saline containing wells. Cytotoxicity was determined as IC50 using GraphPad Prism version 5.01 for Windows, GraphPad Software, San Diego Calif. […] 4 wells of each individual set of two 96 well plates were compared and analyzed. Statistical analysis for significance was determined by a two-tailed Student's T-test.

SKOV-3 cells = assay type: cell-based, human; conditions: SKOV-3, 24 hours incubation; read-out: IC50 (maximal efficacy)
Excerpt: as §4, §5, §6, §7

NIH:3T3 = assay type: cell-based, mouse; conditions: non cancerous cell line 3T3
Excerpt: as §4, §5, §6, §7

MDA-MB-435 = experiment: Fluorescence microscopy, mechanism of action in MDA-MB-435 cells; assay type: cell-based, human; conditions: 10 μM, 5 minutes exposure
Experimental: In brief, human breast cancer cells (MDA-MB-435, passage #252) were seeded onto culture dishes. The following markers were introduced prior to adding EP100: DRAQ5™ (Alexis Corporation)—blue—was used for staining of the nucleus and MnoTracker® Red CMXRos (M7512) (Molecular Probes, Inc. OR) were applied for visualizing intact mitochondria. Cell membranes were stained with wheat germ alexa fluor green conjugates (Molecular Probes, Inc. OR).
Cells were loaded first with Mitotracker dye, according to the manufacturers recommendation. […] Culture dishes with saline only served as controls. The supernatant was removed and the remaining cells prepared for fluorescence microscopy imaging.

MDA-MB-435S xenograft = experiment: MDA-MB-435S xenograft, kinetics of tumor destruction after a single injection; assay type: in vivo, mice; conditions: single i.v. injection, 0.2 and 2 mg/kg
Experimental: In brief, Nu/Nu female mice, outbred strain, age 5 weeks (Charles River), were injected (s.c.) into the interscapular region with a MDA-MB-435S (passage #249)/Matrigel suspension (2.4×10^6 cells/mouse) as described in Example 10. […] The doses were given as a single bolus intravenous injection via lateral tail vein.
Mice were sacrificed 1, 2 and 16 hours after treatment with Phor 18-LHRH (338613) or saline. At study endpoint body weight, tumor weights were determined and tumors were fixed in phosphate buffered 10% formalin.

| Substance | Tumor volume compared to saline controls [1] | IC50 (MES-SA-Dx5) [µM] | IC50 (OVCAR-3) [µM] | IC50 (SKOV-3) [µM] | IC50 (MDA-MB-231) [µM] | IC50 (OVCAR-3 cells) [µM] | IC50 (SKOV-3 cells) [µM] | IC50 (NIH:3T3) [µM] | Plasma membrane (fluorescence microscopy) (MDA-MB-435) | Time after injection to destruction of tumors (MDA-MB-435S xenograft) [h] |
| --- | --- | --- | --- | --- | --- | --- | --- | --- | --- | --- |
| KFAKFAK KFAKFAK KFAK [Phor18] | ineffective | 28.1 ± 2.5 | 20.5 ± 5.1 | 21.7 ± 3.6 | 18.9 ± 0.8 |  |  |  |  |  |
| KFAKFAKKFAKFAKKFAKQHWSYGLRPG [Phor18-LHRH] |  |  |  |  |  | 0.5 | 11.5 | > 10 | disintegration of the plasma membrane | 1 |
